For 18 compounds, IC50 and CC50 results are on record in ChEMBL document CHEMBL4346687, “Design, synthesis and biological evaluation of novel uracil derivatives bearing 1, 2, 3-triazole moiety as thymidylate synthase (TS) inhibitors and as potential antitumor drugs” (Eur J Med Chem, 2019).

One data set relates to SGC-7901. The data set can be described thus: cells. The conditions noted are these: Homo sapiens, SGC-7901, 24 h.
A further data set relates to HepG2. Kind of data set: cells. The conditions noted are these: Homo sapiens, HepG2, 24 h.
A short description of data set [1]: Cytotoxicity against human IOSE-80 cells assessed as reduction in cell viability after 24 hrs by MTT assay. Format: cell-based. The conditions noted are these: for CC50 at 24 h: IOSE-80 cells. On the technique in general: Formazan colour is commonly taken as a measure of viable cells.
A further data set concerns A549. Kind of data set: cells. The following applies: Homo sapiens, A549, 24 h.
Data set [2] can be described thus: Cytotoxicity against human L02 cells assessed as reduction in cell viability after 24 hrs by MTT assay. Format: cell-based. The following applies: L02 cells.
The subject of a further data set is OVCAR-3. The data set can be described thus: cells. The following applies: Homo sapiens, OVCAR-3, 24 h.
Data set [3] is described as follows: Cytotoxicity against human GES-1 cells assessed as reduction in cell viability after 24 hrs by MTT assay. Format: cell-based, GES1. The following applies: GES-1 cells.
Data set [4] in a line: Cytotoxicity against human HPAEpic cells assessed as reduction in cell viability after 24 hrs by MTT assay. It counts as cell-based. The following applies: HPAEpic cells.

A word on the IC50: it is the concentration needed to halve the response being measured. As usually defined, the CC50 is the concentration that lowers cell viability or growth by half.

Description for A549: Antiproliferative activity against human A549 cells assessed as reduction in cell viability after 24 hrs by MTT assay
Description for HepG2: Antiproliferative activity against human HepG2 cells assessed as reduction in cell viability after 24 hrs by MTT assay
Description for OVCAR-3: Antiproliferative activity against human OVCAR3 cells assessed as reduction in cell viability after 24 hrs by MTT assay
Description for SGC-7901: Antiproliferative activity against human SGC7901 cells assessed as reduction in cell viability after 24 hrs by MTT assay

With `O=c1[nH]cc(S(=O)(=O)Nc2cccc(-c3cn(-c4ccc(Cl)cc4)nn3)c2)c(=O)[nH]1`, the IC50 in the data set on SGC-7901 worked out at 2.16 µM; in the data set on HepG2 it was 1.96 µM; in the data set with A549 it was 1.73 µM; with OVCAR-3, 2.04 µM. Further, the CC50 at 24 h in data set [1] came out at 6.26 µM; in data set [2], 9.86 µM; in data set [3], 11.3 µM; in data set [4], 14 µM.
`Cc1ccccc1-n1cc(-c2ccccc2NS(=O)(=O)c2c[nH]c(=O)[nH]c2=O)nn1`: the IC50 was 9.57 µM in the data set with SGC-7901, 13.9 µM in the data set on HepG2, 3.21 µM in the data set with A549 and 6.55 µM in the data set on OVCAR-3. Further, the CC50 at 24 h was found to be 17.4 µM in data set [1], 56.6 µM in data set [2], 19.9 µM in data set [3] and 9.67 µM in data set [4].
Consider `O=c1[nH]cc(S(=O)(=O)Nc2ccccc2-c2cn(-c3ccccc3)nn2)c(=O)[nH]1`, for which the IC50 with SGC-7901 is 11.8 µM; in the data set with HepG2 it was 6.16 µM; with A549, 6.79 µM; with OVCAR-3, 6.65 µM. Also, the CC50 at 24 h is 10.5 µM in data set [1], 10.6 µM in data set [2], over 100 µM in data set [3] and 14.3 µM in data set [4].
Consider `Cc1cccc(-n2cc(-c3cccc(NS(=O)(=O)c4c[nH]c(=O)[nH]c4=O)c3)nn2)c1`, for which the IC50 in the data set on SGC-7901 is 9.1 µM; in the data set with HepG2 it was 7.05 µM; in the data set on A549, 3.55 µM; in the data set with OVCAR-3, 4.08 µM. Further, the CC50 at 24 h in data set [1] is 23.4 µM; in data set [2], 28.3 µM; in data set [3], 18.5 µM; in data set [4] it was 23.7 µM.
Consider `Cc1cccc(-n2cc(-c3ccc(NS(=O)(=O)c4c[nH]c(=O)[nH]c4=O)cc3)nn2)c1`, for which the IC50 with SGC-7901 was 17.4 µM; in the data set on HepG2 it was over 20 µM; in the data set on A549, 6.96 µM; with OVCAR-3, 7.49 µM. For the same compound, the CC50 at 24 h in data set [1] is 29.3 µM; in data set [2], 39 µM; in data set [3] it was 28.3 µM; in data set [4] it was 31.3 µM.
As to `O=c1[nH]cc(S(=O)(=O)Nc2ccccc2-c2cn(-c3ccccc3Cl)nn2)c(=O)[nH]1`, the IC50 in the data set on SGC-7901 was 6.52 µM; in the data set with HepG2, 2.24 µM; in the data set on A549, 2.74 µM; with OVCAR-3 it was 3.17 µM. The CC50 at 24 h in data set [1] stood at 11.2 µM; in data set [2], 22.8 µM; in data set [3], 20.8 µM; in data set [4] it was 17.7 µM.
As to `O=c1[nH]cc(S(=O)(=O)Nc2cccc(-c3cn(-c4ccccc4)nn3)c2)c(=O)[nH]1`, the IC50 was 17.2 µM with SGC-7901, 11.2 µM in the data set with HepG2, 12.7 µM with A549 and over 20 µM in the data set on OVCAR-3. In addition, the CC50 entry in data set [1] (24 h) is “Non-Toxic”. Also, the CC50 at 24 h in data set [2] is over 100 µM; in data set [3] it was 22.5 µM; in data set [4] it was 41.5 µM.
In the case of `O=c1[nH]cc(S(=O)(=O)Nc2cccc(-c3cn(-c4cccc(Cl)c4)nn3)c2)c(=O)[nH]1`, the IC50 in the data set on SGC-7901 was found to be 3.95 µM; in the data set on HepG2 it was 4.2 µM; with A549, 2.43 µM; in the data set with OVCAR-3, 3.41 µM. Also, the CC50 at 24 h in data set [1] came out at 18.9 µM; in data set [2] it was 8.33 µM; in data set [3] it was 26.2 µM; in data set [4] it was 10.2 µM.
`O=c1[nH]cc(S(=O)(=O)Nc2cccc(-c3cn(-c4ccccc4Cl)nn3)c2)c(=O)[nH]1`: the IC50 in the data set with SGC-7901 is 3.01 µM; in the data set on HepG2, 4.03 µM; with A549 it was 2.73 µM; in the data set on OVCAR-3 it was 5.37 µM. Moreover, the CC50 at 24 h in data set [1] turned out to be 17.9 µM; in data set [2] it was 11.5 µM; in data set [3] it was 14 µM; in data set [4], 12.3 µM.
With `O=c1[nH]cc(S(=O)(=O)Nc2ccc(-c3cn(-c4ccccc4Cl)nn3)cc2)c(=O)[nH]1`, the IC50 stood at 2.68 µM in the data set on SGC-7901, 2.23 µM with HepG2, 2.81 µM in the data set on A549 and 4.27 µM in the data set with OVCAR-3. The half-maximal cytotoxic concentration (CC50) at 24 h was determined as 22.2 µM in data set [1], 19.3 µM in data set [2], 16.4 µM in data set [3] and 17 µM in data set [4].
For the compound `Cc1ccc(-n2cc(-c3ccccc3NS(=O)(=O)c3c[nH]c(=O)[nH]c3=O)nn2)cc1`, the IC50 came out at 6.39 µM in the data set on SGC-7901, 8.35 µM in the data set with HepG2, 2.91 µM in the data set on A549 and 2.19 µM with OVCAR-3. Moreover, the CC50 at 24 h is 33.4 µM in data set [1], over 100 µM in data set [2], 32.4 µM in data set [3] and 7.03 µM in data set [4].
Turning to `O=c1[nH]cc(S(=O)(=O)Nc2ccc(-c3cn(-c4cccc(Cl)c4)nn3)cc2)c(=O)[nH]1`, the IC50 in the data set with SGC-7901 was 2.46 µM; with HepG2 it was 2.02 µM; in the data set on A549 it was 2.31 µM; in the data set with OVCAR-3, 2.75 µM. Also, the CC50 at 24 h was determined as 14.3 µM in data set [1], 19 µM in data set [2], 7.57 µM in data set [3] and 13.8 µM in data set [4].
Consider `O=c1[nH]cc(S(=O)(=O)Nc2ccc(-c3cn(-c4ccc(Cl)cc4)nn3)cc2)c(=O)[nH]1`, for which the IC50 turned out to be 1.83 µM in the data set on SGC-7901, 1.98 µM in the data set with HepG2, 1.21 µM in the data set with A549 and 2.16 µM with OVCAR-3. Further, the CC50 at 24 h in data set [1] was 17.7 µM; in data set [2], 42.9 µM; in data set [3] it was 23.3 µM; in data set [4], 14.8 µM.
Take `Cc1ccccc1-n1cc(-c2cccc(NS(=O)(=O)c3c[nH]c(=O)[nH]c3=O)c2)nn1`: the IC50 in the data set on SGC-7901 is 9.23 µM; in the data set on HepG2, 9.57 µM; in the data set with A549, 5.47 µM; with OVCAR-3 it was 6.23 µM. Further, the CC50 at 24 h in data set [1] is 36.4 µM; in data set [2], 15.3 µM; in data set [3], 21.5 µM; in data set [4], 10.2 µM.
Take `O=c1[nH]cc(S(=O)(=O)Nc2ccccc2-c2cn(-c3cccc(Cl)c3)nn2)c(=O)[nH]1`: the IC50 was determined as 2.27 µM in the data set with SGC-7901, 2.46 µM with HepG2, 2.34 µM in the data set with A549 and 2.18 µM in the data set with OVCAR-3. The CC50 at 24 h in data set [1], in data set [2], in data set [3] and in data set [4] was over 100 µM in each case.
Consider `Cc1ccc(-n2cc(-c3cccc(NS(=O)(=O)c4c[nH]c(=O)[nH]c4=O)c3)nn2)cc1`, for which the IC50 with SGC-7901 was 9.43 µM; in the data set on HepG2 it was over 20 µM; in the data set with A549, 3.63 µM; with OVCAR-3, 3.54 µM. Also, the CC50 at 24 h is 12.8 µM in data set [1], 23.1 µM in data set [2], 15.8 µM in data set [3] and 10.6 µM in data set [4].
Regarding `O=c1[nH]cc(S(=O)(=O)Nc2ccccc2-c2cn(-c3ccccc3F)nn2)c(=O)[nH]1`, the IC50 with SGC-7901 is 10.8 µM; in the data set with HepG2, 12.5 µM; in the data set with A549 it was 7.37 µM; in the data set with OVCAR-3, 15.3 µM. Besides, the CC50 at 24 h in data set [1], in data set [2], in data set [3] and in data set [4] was over 100 µM in each case.
Regarding `Cc1cccc(-n2cc(-c3ccccc3NS(=O)(=O)c3c[nH]c(=O)[nH]c3=O)nn2)c1`, the IC50 in the data set with SGC-7901 was determined as 3.51 µM; with HepG2 it was 3.62 µM; in the data set with A549, 1.87 µM; with OVCAR-3, 3.15 µM. Moreover, the CC50 at 24 h came out at 15.8 µM in data set [1], 21.9 µM in data set [2], 23.7 µM in data set [3] and 12.3 µM in data set [4].
